From ChEMBL document CHEMBL5247678, “Design, Synthesis, and Structure-Activity Relationships of Biaryl Anilines as Subtype-Selective PPAR-alpha Agonists” (ACS Med Chem Lett, 2023)

Experiments:
[1] = Cytotoxicity against human RPE cells measured upto 50 uM; assay type: toxicity, cell-based
[2] = Cytotoxicity against human RPE cells assessed as cell viability at 50 uM; assay type: toxicity, cell-based

SMILES | Activity [1] | Activity [2]
O=C(O)c1cc(F)cc(NCc2ccc(-c3ccccc3)cc2)c1 | Non-Toxic | 
O=C(O)c1cc(F)cc(NCc2ccc(-c3ccccc3C(F)(F)F)cc2)c1 | Non-Toxic | 
O=C(O)c1cc(F)cc(NCc2cn(-c3ccc(C(F)(F)F)cc3)nn2)c1 | Non-Toxic | Toxic
O=C(O)c1cc(F)cc(NCc2ccc(-c3ccc(C(F)(F)F)cc3)cc2)c1 | Non-Toxic | 
